Tests used:
[1] = biological target: mixture of two ALS proteins, one comprising the P197S and the other the W574L mutation (Arabidopsis thaliana, UniProt P17597, P197S/W574L); assay: biochemical; settings: for Resistance Factor P197S & W574L (mixture): calculated mixture of two ALS proteins, relative to WT; for pI50 P197S & W574L (mixture): mixture of two ALS proteins, calculated as described in WO 2013/127766
[2] = biological target: AHAS protein comprising the W574L mutation (Arabidopsis thaliana, UniProt P17597, W574L); assay: biochemical; settings: for Resistance Factor W574L: AHAS W574L relative to WT; for pI50 W574L: AHAS W574L
Chain of AHAS protein comprising the W574L mutation (P17597 56-670 W574L): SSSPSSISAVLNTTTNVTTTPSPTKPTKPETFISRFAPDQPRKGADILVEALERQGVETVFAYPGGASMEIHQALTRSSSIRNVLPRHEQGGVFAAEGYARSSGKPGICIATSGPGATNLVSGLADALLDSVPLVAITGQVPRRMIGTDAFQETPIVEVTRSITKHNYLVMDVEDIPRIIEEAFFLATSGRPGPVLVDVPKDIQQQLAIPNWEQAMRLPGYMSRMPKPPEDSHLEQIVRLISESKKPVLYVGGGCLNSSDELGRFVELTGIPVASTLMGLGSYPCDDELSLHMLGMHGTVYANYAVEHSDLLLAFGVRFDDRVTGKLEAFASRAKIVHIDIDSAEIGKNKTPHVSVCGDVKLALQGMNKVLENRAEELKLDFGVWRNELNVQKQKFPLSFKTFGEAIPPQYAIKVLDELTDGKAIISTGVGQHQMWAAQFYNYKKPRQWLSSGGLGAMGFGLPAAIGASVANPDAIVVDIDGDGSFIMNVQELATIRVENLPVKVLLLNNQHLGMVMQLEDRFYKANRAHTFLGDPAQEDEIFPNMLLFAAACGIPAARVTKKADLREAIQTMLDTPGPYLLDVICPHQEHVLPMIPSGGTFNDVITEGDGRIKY
Description: (§1) Bacteria are grown at 37° C. in LB-medium containing 100 mg/l carbenicillin and 25 mg/l canamycin, induced with 1 mM isopropyl-β-D-thiogalactopyranoside at an OD600 of 0.6, cultivated for 16 hours at 18° C. and harvested by, e.g., centrifugation. Bacterial pellets are resuspended in 100 mM sodium phosphate buffer pH 7.0 containing 0.1 mM thiamine-pyrophosphate, 1 mM MgCl2, and 1 μM FAD at a concentration of 1 gram wet weight per 25 ml of buffer and disrupted by, e.g., sonification. The crude protein extract obtained after centrifugation is used for ALS activity measurements.
(§2) ALS protein can be extracted from leaves or tissue cultures, such as B. napus or B. juncea leaves, or B. napus or B. juncea tissue cultures as described by Ray (Plant Physiol, 1984, 75:827-831). An ALS assays can be carried out in 96-well microtiter plates using a modification of the procedure described by Ray (1984): The reaction mixture contains 20 mM potassium phosphate buffer pH 7.0, 20 mM sodium pyruvate, 0.45 mM thiamine-pyrophosphate, 0.45 mM MgCl2, 9 μM FAD. ALS enzyme and various concentrations of ALS inhibitors can be mixed in a final volume of 90 μl. Assays can be initiated by adding enzyme and the assays can be terminated after 75 min incubation at 30° C. by the addition of 40 μl 0.5 M H2SO4.

[3] = biological target: AHAS protein comprising the P197S mutation (Arabidopsis thaliana, UniProt P17597, P197S); assay: biochemical; settings: for Resistance Factor P197S: AHAS P197S relative to WT; for pI50 P197S: AHAS P197S
Chain of AHAS protein comprising the P197S mutation (P17597 56-670 P197S): as the sequence (P17597 56-670 W574L) above, with P142S, L519W counted along it
Description: as §1, §2

[4] = biological target: AHAS protein WT (Arabidopsis thaliana, UniProt P17597); assay: biochemical; settings: for pI50 WT: AHAS WT
Chain of AHAS protein WT (P17597 56-670): as the sequence (P17597 56-670 W574L) above, with L519W counted along it
Description: as §1, §2

[5] = biological target: AHAS protein comprising both the P197S and W574L mutation in one ALS protein (Arabidopsis thaliana, UniProt P17597, P197S/W574L); type: biochemical; settings: both mutations in one ALS protein; for Resistance Factor P197S-W574L (in one protein): relative to WT
Chain of AHAS protein comprising both the P197S and W574L mutation in one ALS protein (P17597 56-670 P197S/W574L): as the sequence (P17597 56-670 W574L) above, with P142S counted along it
Description: as §1, §2

[6] = tested on: oilseed rape homozygous for HETO132 and HETO134; assay: Field test of visible phytotoxicity upon herbicide spraying, HETO132-HETO134; type: in vivo, Brassica napus; settings: g ai/ha: imazamox 40, bispyribac-sodium 50, propoxycarbazone-sodium 70, mesosulfuron-methyl 60, pyroxsulam 12.5 + cloquintocet-mexyl 37.5, each + rapeseed oil methylated 366.5, 0%=no phytotoxic effects, 100%=all plants killed
Excerpt: (§3) Seeds of spring oilseed rape homozygous for HETO132 and HETO134, and seeds of spring oilseed rape homozygous for HETO133 and HETO 134 were sown in a field according to typical practical agricultural methods. Several ALS inhibitor herbicides were applied to the oilseed rape plants by using specific spray equipment for small plot applications. […] The use of all herbicides in the test lead to a clearly better tolerance of the spring oilseed rape lines homozygous for HETO132 and HETO134 as compared to a standard variety not comprising ALS alleles according to the invention.

[7] = tested on: wild-type (WT) oilseed rape; assay: Field test of visible phytotoxicity upon herbicide spraying, wild-type; type: in vivo, Brassica napus; settings: g ai/ha: imazamox 40, bispyribac-sodium 50, propoxycarbazone-sodium 70, mesosulfuron-methyl 60, pyroxsulam 12.5 + cloquintocet-mexyl 37.5, each + rapeseed oil methylated 366.5, 0%=no phytotoxic effects, 100%=all plants killed
Excerpt: as §3

[8] = tested on: oilseed rape homozygous for HETO133 and HETO134; assay: Field test of visible phytotoxicity upon herbicide spraying, HETO133-HETO134; type: in vivo, Brassica napus; settings: g ai/ha: imazamox 40, bispyribac-sodium 50, propoxycarbazone-sodium 70, mesosulfuron-methyl 60, pyroxsulam 12.5 + cloquintocet-mexyl 37.5, each + rapeseed oil methylated 366.5, 0%=no phytotoxic effects, 100%=all plants killed
Excerpt: as §3

Chain of mixture of two ALS proteins, one comprising the P197S and the other the W574L mutation (P17597 56-670 P197S/W574L): as the sequence (P17597 56-670 W574L) above, with P142S counted along it

| SMILES | IC50 [1] [µM] | Resistance Factor P197S & W574L (mixture) [1] | IC50 [2] [µM] | Resistance Factor W574L [2] | IC50 [3] [µM] | Resistance Factor P197S [3] | IC50 [4] [µM] | pI50 P197S-W574L (in one protein) [5] | Resistance Factor P197S-W574L (in one protein) [5] | also measured |
| --- | --- | --- | --- | --- | --- | --- | --- | --- | --- | --- |
| COc1cc(OC)nc(NC(=O)NS(=O)(=O)N(C)S(C)(=O)=O)n1 [Amidosulfuron, amidosulfuron] | > 100 | >501 | > 100 | >488 | > 100 | >488 | 0.2 | <4 | >488 |  |
| COc1cc(OC)nc(Oc2cccc(Oc3nc(OC)cc(OC)n3)c2C(=O)O)n1 [Bispyribac-sodium, bispyribac-sodium] | 0.794 | 40 | 7.94 | 447 | 0.0794 | 4 | 0.0158 | <4 | >5623 | Percentage phytotoxicity 9 DAA HETO132-HETO134 [6]: 46.7%; Percentage phytotoxicity 16 DAA HETO132-HETO134 [6]: 71.7%; Percentage phytotoxicity 24 DAA HETO132-HETO134 [6]: 43.3%; Percentage phytotoxicity 9 DAA wild-type [7]: 76.7%; Percentage phytotoxicity 16 DAA wild-type [7]: 98.3%; Percentage phytotoxicity 24 DAA wild-type [7]: 100%; Percentage phytotoxicity 9 DAA HETO133-HETO134 [8]: 56.7%; Percentage phytotoxicity 16 DAA HETO133-HETO134 [8]: 88.3%; Percentage phytotoxicity 24 DAA HETO133-HETO134 [8]: 92.7% |
| COc1cc(OC)nc(NC(=O)NS(=O)(=O)c2ncccc2C(F)(F)F)n1 [Flazasulfuron, flazasulfuron] | 0.631 | 794 | 3.16 | 3802 | 0.1 | 120 | 0.000794 | <4 | >120226 |  |
| COc1ncc(F)c2nc(S(=O)(=O)Nc3c(F)cccc3F)nn12 [Florasulam, florasulam] |  | 200 |  | 1738 |  | 28 |  | <4 | >6918 | pI50 P197S & W574L (mixture) [1]: 5.5; pI50 W574L [2]: 4.6; pI50 P197S [3]: 6.4; pI50 WT [4]: 7.8 |
| COC(=O)c1ccc(C(F)(F)F)nc1S(=O)(=O)NC(=O)Nc1nc(OC)cc(OC)n1 [Flupyrsulfuron-methyl] |  |  |  |  |  |  |  |  | >47863 |  |
| COCc1cnc(C2=NC(C)(C(C)C)C(=O)N2)c(C(=O)O)c1 (centres unmarked) [Imazamox, imazamox] | 79.4 | 20 | > 100 | >22 | 5.01 | 1 | 3.98 | <4 | >22 | Percentage phytotoxicity 9 DAA HETO132-HETO134 [6]: 6.7%; Percentage phytotoxicity 16 DAA HETO132-HETO134 [6]: 8.7%; Percentage phytotoxicity 24 DAA HETO132-HETO134 [6]: 0%; Percentage phytotoxicity 9 DAA wild-type [7]: 73.3%; Percentage phytotoxicity 16 DAA wild-type [7]: 98%; Percentage phytotoxicity 24 DAA wild-type [7]: 99%; Percentage phytotoxicity 9 DAA HETO133-HETO134 [8]: 6.7%; Percentage phytotoxicity 16 DAA HETO133-HETO134 [8]: 10%; Percentage phytotoxicity 24 DAA HETO133-HETO134 [8]: 0% |
| COC(=O)c1ccc(I)cc1S(=O)(=O)[N-]C(=O)Nc1nc(C)nc(OC)n1.[Na+] [Iodosulfuron-methy-sodium, iodosulfuron-methyl-sodium] |  | 316 |  | 555 |  | 139 |  |  | >35030 |  |
| COC(=O)c1ccc(CNS(C)(=O)=O)cc1S(=O)(=O)NC(=O)Nc1nc(OC)cc(OC)n1 [Mesosulfuron-methyl, mesosulfuron-methyl] |  | 794 |  | 25770 |  | 65 |  |  | >64730 |  |
| COc1cc(OC)n2nc(S(=O)(=O)Nc3c(Cl)ccc(C)c3Cl)nc2n1 [Metosulam, metosulam] | 6.31 | 2512 | 20 | 5754 | 1.58 | 457 | 0.00316 | <4 | >28840 |  |
| COC(=O)c1ccccc1S(=O)(=O)NC(=O)Nc1nc(C)nc(OC)n1 [Metsulfuron-methyl, metsulfuron-methyl] |  |  |  | 755 |  | 38 |  |  | >7547 |  |
| COc1cc(OC)nc(NC(=O)NS(=O)(=O)c2ncccc2C(=O)N(C)C)n1 [Nicosulfuron, nicosulfuron] | 31.6 | 251 | > 100 | >607 | 1 | 6 | 0.158 | <4 | >607 |  |
| CCCOc1nn(C(=O)[N-]S(=O)(=O)c2ccccc2C(=O)OC)c(=O)n1C.[Na+] [PROPOXYCARBAZONE-SODIUM, propoxycarbazone-sodium] |  |  |  |  |  |  |  |  |  | Percentage phytotoxicity 9 DAA HETO132-HETO134 [6]: 40%; Percentage phytotoxicity 16 DAA HETO132-HETO134 [6]: 36.7%; Percentage phytotoxicity 24 DAA HETO132-HETO134 [6]: 11.7%; Percentage phytotoxicity 9 DAA wild-type [7]: 76.7%; Percentage phytotoxicity 16 DAA wild-type [7]: 97%; Percentage phytotoxicity 24 DAA wild-type [7]: 97.7%; Percentage phytotoxicity 9 DAA HETO133-HETO134 [8]: 53.3%; Percentage phytotoxicity 16 DAA HETO133-HETO134 [8]: 82.7%; Percentage phytotoxicity 24 DAA HETO133-HETO134 [8]: 76.7% |
| CCCOc1nn(C(=O)[N-]S(=O)(=O)c2ccccc2C(=O)OC)c(=O)n1C.[Na+] [Propoxycarbazone] |  | 200 |  | 293 |  | 147 |  |  | >4641 |  |
| COc1cc(OC)n2nc(NS(=O)(=O)c3c(C(F)(F)F)ccnc3OC)nc2n1 [Pyroxsulam, pyroxsulam] |  | 6310 |  | >41368 |  | 261 |  | <4 | >41368 | pI50 P197S & W574L (mixture) [1]: 4.8; pI50 W574L [2]: <4; pI50 P197S [3]: 6.2; pI50 WT [4]: 8.6 |
| CCS(=O)(=O)c1cccnc1S(=O)(=O)NC(=O)Nc1nc(OC)cc(OC)n1 [Rimsulfuron, rimsulfuron] | 2 | 63 | 10 | 447 | 0.398 | 18 | 0.02 | <4 | >4466 |  |
| CCS(=O)(=O)c1nc2ccccn2c1S(=O)(=O)NC(=O)Nc1nc(OC)cc(OC)n1 [Sulfosulfuron, sulfosulfuron] | 251 | 10000 | > 100 | >4641 | 39.8 | 1848 | 0.02 | <4 | >4641 |  |
| COC(=O)c1csc(C)c1S(=O)(=O)NC(=O)n1nc(OC)n(C)c1=O [Thiencarbazone-methyl, thiencarbazone-methyl] |  | 1259 |  | 1173 |  | 1173 |  |  | >7399 |  |
| COC(=O)c1sccc1S(=O)(=O)NC(=O)Nc1nc(C)nc(OC)n1 [Thifensulfuron-Methyl, thifensulfuron-methyl] | 25.1 | 631 | 63.1 | 1585 | 7.94 | 200 | 0.0398 | <4 | >2511 |  |
